This passage reports IC50 results from patent publication US7183252B2, “Indole peptidomimetics as thrombin receptor antagonists” (Ortho-McNeil Pharmaceutical, Inc., priority 1999, dated 2007).

The target of assay [1] is T1, thrombin receptor (PAR-1) (Homo sapiens, UniProt P25116).
T1 construct: CHRF membranes (Jones, Biochim. Biophys. Acta 1992, 1136, 272) are thawed from −70° C; endogenous in cells; host or cells: CHRF cell membranes
T1 sequence (P25116 22-425): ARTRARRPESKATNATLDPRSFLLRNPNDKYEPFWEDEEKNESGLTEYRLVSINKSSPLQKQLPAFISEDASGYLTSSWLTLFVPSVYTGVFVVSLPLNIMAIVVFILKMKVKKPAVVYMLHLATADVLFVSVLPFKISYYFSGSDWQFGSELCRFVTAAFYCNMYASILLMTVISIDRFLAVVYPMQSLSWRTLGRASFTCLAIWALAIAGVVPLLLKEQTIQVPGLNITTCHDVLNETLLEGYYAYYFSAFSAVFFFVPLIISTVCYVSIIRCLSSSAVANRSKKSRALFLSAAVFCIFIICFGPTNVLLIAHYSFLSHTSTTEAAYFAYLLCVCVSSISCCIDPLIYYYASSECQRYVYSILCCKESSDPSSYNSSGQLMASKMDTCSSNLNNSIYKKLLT
Briefly: In vitro thrombin receptor binding assay (CHRF membranes). Conditions: tritiated 721-40 radioligand, read-out: Bndg IC50 (Thrombin receptor binding). In a few lines:
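CHRF cell membranes incubated 30 min with tritiated peptide agonist 721–40 and compound at 3.7 μg/mL final (0.6% DMSO) in HEPES/MgCl2/BSA buffer. Nonspecific binding defined with unlabeled 721–40; bound radioactivity counted after filtration onto PEI-treated filters.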

Another assay deals with gel-filtered platelets. In words: In vitro inhibition of thrombin-induced gel-filtered platelet aggregation. The class given is cell-based. As to conditions: human gel-filtered platelets, agonist thrombin 50 μL of 1 unit/mL, read-out: Thrmb IC50 (Thrombin-induced aggregation of gel-filtered platelets). In a few lines: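 Gel-filtered (Sepharose 2B) human platelets from citrated PRP, 2×10^7 per sample, in Tyrode's buffer pH 7.4 with BSA and added calcium, preincubated with test compound. Aggregation induced by thrombin (50 μL of 1 unit/mL) and followed as light transmission over 3 min. Inhibition is taken relative to control-treated platelets.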

Molecules are shown by their SMILES. Like-named read-outs stand apart in the source and are kept apart here. Where only a bound is given, the exact number is not on record here.

On to `C[C@@H](CNC(=O)[C@H](CCCNC(=N)N)NC(=O)[C@H](Cc1ccc(F)c(F)c1)NC(=O)Nc1ccc2c(CN3CCCC3)cn(Cc3c(Cl)cccc3Cl)c2c1)c1ccccc1` [Compound 83], for which the results for the IC50 (in assay [1]; in the assay on gel-filtered platelets (Platelet)) were 680 nM and 430 nM, respectively.

Take `N=C(N)NCCC[C@H](NC(=O)[C@@H](Cc1ccc(F)c(F)c1)NC(=O)Nc1ccc2c(CN3CCCC3)cn(Cc3c(Cl)cccc3Cl)c2c1)C(=O)NCc1ccccc1` [Compound 84]: the results for the IC50 (in assay [1]; in the assay with gel-filtered platelets) were 3200 nM and 14900 nM, respectively.

For `NC(N)=NCCC[C@H](NC(=O)[C@H](Cc1ccc(I)cc1)NC(=O)Nc1ccc2c(CN3CCCCC3)cn(Cc3c(Cl)cccc3Cl)c2c1)C(=O)NCc1ccccc1` [Compound 85], the IC50 in assay [1] is 1600 nM; with gel-filtered platelets (Platelet), 4800 nM.

As to `N=C(N)NCCC[C@H](NC(=O)[C@H](Cc1ccccc1Cl)NC(=O)Nc1ccc2c(CN3CCCCC3)cn(Cc3c(Cl)cccc3Cl)c2c1)C(=O)NCc1ccccc1` [Compound 86], the IC50 in assay [1] was 510 nM; in the assay with gel-filtered platelets (Platelet), 2900 nM.

As for `COC[C@H]1CCCN1Cc1cn(Cc2c(Cl)cccc2Cl)c2cc(NC(=O)N[C@@H](Cc3ccc(Cl)cc3)C(=O)N[C@@H](CCCNC(=N)N)C(=O)NCc3ccccc3)ccc12` [Compound 87], the figures for the IC50 (in assay [1]; in the assay with gel-filtered platelets (Platelet)) were 280 nM and 1300 nM, respectively.

As to `NC(N)=NCCC[C@H](NC(=O)[C@H](Cc1cccc(F)c1)NC(=O)Nc1ccc2c(CN3CCC(=O)CC3)cn(Cc3c(Cl)cccc3Cl)c2c1)C(=O)NCc1ccccc1` [Compound 88], the IC50 in assay [1] turned out to be 1700 nM; in the assay with gel-filtered platelets (Platelet) it was 12600 nM.

With `Cc1ccccc1Cn1cc(CN2CCC(N(C)C)C2)c2ccc(NC(=O)N[C@H](Cc3ccc(F)c(F)c3)C(=O)N[C@@H](CCCN=C(N)N)C(=O)NCc3ccccc3)cc21` (stereo partly drawn) [Compound 90], the IC50 in assay [1] was 15800 nM; in the assay on gel-filtered platelets (Platelet) it was over 10000 nM.

On to `COC[C@H]1CCCN1Cc1cn(Cc2cc(Cl)nc(Cl)c2)c2cc(NC(=O)N[C@@H](Cc3cccc(F)c3)C(=O)N[C@@H](CCCNC(=N)N)C(=O)NCc3ccccc3)ccc12` [Compound 91], for which the IC50 in assay [1] was 4000 nM; in the assay with gel-filtered platelets (Platelet), 22400 nM.

Turning to `N=C(N)NCCC[C@H](NC(=O)[C@H](Cc1cccc(F)c1)NC(=O)Nc1ccc2c(CN3CCCC3)cn(Cc3c(Cl)cccc3Cl)c2c1)C(=O)NCc1ccc(S(N)(=O)=O)cc1` [Compound 92], the IC50 in assay [1] turned out to be 1000 nM; in the assay on gel-filtered platelets (Platelet), 1300 nM.

In the case of `C=CCOC(=O)[C@H](CCCN)NC(=O)[C@H](Cc1ccc(F)c(F)c1)NC(=O)Nc1ccc2c(CN3CCCC3)cn(Cc3c(Cl)cccc3Cl)c2c1` [Compound 93], the IC50 in assay [1] was 500 nM; with gel-filtered platelets (Platelet) it was 740 nM.

As to `CC(=O)NCCC[C@H](NC(=O)[C@H](Cc1ccc(F)c(F)c1)NC(=O)Nc1ccc2c(CN3CCCC3)cn(Cc3c(Cl)cccc3Cl)c2c1)C(=O)NCc1ccccc1` [Compound 94], the 50% inhibitory concentration (IC50) in assay [1] worked out at 810 nM; with gel-filtered platelets (Platelet), 10000 nM.

Take `CC(=N)NCCC[C@H](NC(=O)[C@H](Cc1ccc(F)c(F)c1)NC(=O)Nc1ccc2c(CN3CCCC3)cn(Cc3c(Cl)cccc3Cl)c2c1)C(=O)NCc1ccccc1` [Compound 95]: the IC50 in assay [1] is 370 nM; with gel-filtered platelets (Platelet), 410 nM.

Turning to `NCCC[C@H](NC(=O)[C@H](Cc1cccc(F)c1)NC(=O)Nc1ccc2c(CN3CCCC3)cn(Cc3c(Cl)cccc3Cl)c2c1)C(=O)NC1Cc2ccccc2C1` [Compound 96], the values for the IC50 (in assay [1]; in the assay with gel-filtered platelets (Platelet)) were 2800 nM and 1000 nM, respectively.

Consider `C=CCN(C)Cc1cn(Cc2c(Cl)cccc2Cl)c2cc(NC(=O)N[C@@H](Cc3cccc(F)c3)C(=O)N[C@@H](CCCN)C(=O)NC3Cc4ccccc4C3)ccc12` [Compound 97], for which the IC50 in assay [1] was 1700 nM; with gel-filtered platelets (Platelet), 18800 nM.

On to `NCCC[C@H](NC(=O)[C@H](Cc1ccc(F)c(F)c1)NC(=O)Nc1ccc2c(CN3CCCC3)cn(Cc3c(Cl)cccc3Cl)c2c1)C(=O)NCc1ccncc1` [Compound 98], for which the IC50 in assay [1] amounted to 2300 nM; in the assay with gel-filtered platelets (Platelet), 1800 nM.

Take `NCCC[C@H](NC(=O)[C@H](Cc1ccc(Cl)cc1)NC(=O)Nc1ccc2c(CN3CCCC3)cn(Cc3c(Cl)cccc3Cl)c2c1)C(=O)NCc1ccccc1Cl` [Compound 99]: the IC50 in assay [1] stood at 1400 nM; in the assay with gel-filtered platelets (Platelet) it was 740 nM.

For `CN(C)CCC[C@H](NC(=O)[C@H](Cc1ccc(F)c(F)c1)NC(=O)Nc1ccc2c(CN3CCCC3)cn(Cc3c(Cl)cccc3Cl)c2c1)C(=O)NCc1ccccc1` [Compound 100], the IC50 was 1300 nM in assay [1] and 600 nM in the assay with gel-filtered platelets (Platelet).

Regarding `NC[C@H](NC(=O)[C@H](Cc1ccc(F)c(F)c1)NC(=O)Nc1ccc2c(CN3CCCC3)cn(Cc3c(Cl)cccc3Cl)c2c1)C(=O)NCc1ccccc1` [Compound 101], the values for the IC50 (in assay [1]; in the assay on gel-filtered platelets (Platelet)) were 920 nM and 410 nM, respectively.

Turning to `NCC[C@H](NC(=O)[C@H](Cc1ccc(F)c(F)c1)NC(=O)Nc1ccc2c(CN3CCCC3)cn(Cc3c(Cl)cccc3Cl)c2c1)C(=O)NCc1ccccc1` [Compound 102, Benzenepropanamide, N-[(1S)-3-amino-1-[[(phenylmethyl)amino]carbonyl]propyl]-α-[[[[1-[(2,6-dichlorophenyl)methyl]-3-(1-pyrrolidinylmethyl)-1H-indol-6-yl]amino]carbonyl]amino]-3,4-difluoro-, (αS)-], the values for the IC50 (in assay [1]; with gel-filtered platelets (Platelet)) were 500 nM and 160 nM, respectively.

Consider `NC(=O)CC[C@H](NC(=O)[C@H](Cc1ccc(F)c(F)c1)NC(=O)Nc1ccc2c(CN3CCCC3)cn(Cc3c(Cl)cccc3Cl)c2c1)C(=O)NCc1ccccc1` [Compound 103], for which the IC50 is 1200 nM in assay [1] and 540 nM in the assay on gel-filtered platelets (Platelet).

In the case of `CSCC[C@H](NC(=O)[C@H](Cc1ccc(F)c(F)c1)NC(=O)Nc1ccc2c(CN3CCCC3)cn(Cc3c(Cl)cccc3Cl)c2c1)C(=O)NCc1ccccc1` [Compound 104], the results for the IC50 (in assay [1]; in the assay on gel-filtered platelets (Platelet)) were 11200 nM and 530 nM, respectively.

As to `O=C(Nc1ccc2c(CN3CCCC3)cn(Cc3c(Cl)cccc3Cl)c2c1)N[C@@H](Cc1ccc(F)c(F)c1)C(=O)N[C@@H](Cc1ccncc1)C(=O)NCc1ccccc1` [Compound 105], the figures for the half-inhibitory concentration (IC50) (in assay [1]; in the assay on gel-filtered platelets (Platelet)) were 7500 nM and 640 nM, respectively.

As for `Nc1ccc(C[C@H](NC(=O)[C@H](Cc2ccc(F)c(F)c2)NC(=O)Nc2ccc3c(CN4CCCC4)cn(Cc4c(Cl)cccc4Cl)c3c2)C(=O)NCc2ccccc2)cc1` [Compound 106], the IC50 in assay [1] stood at 3300 nM; in the assay on gel-filtered platelets (Platelet), 1100 nM.

As to `N=C(N)NCCC[C@H](NC(=O)[C@@H]1CCCN1C(=O)Nc1ccc2c(CN3CCCC3)cn(Cc3c(Cl)cccc3Cl)c2c1)C(=O)NCc1ccccc1` [Compound 107], the IC50 in assay [1] came to 8000 nM; in the assay with gel-filtered platelets (Platelet) it was 1800 nM.

In the case of `N=C(N)NCCC[C@H](NC(=O)CCNC(=O)[C@H](Cc1ccc(F)c(F)c1)NC(=O)Nc1ccc2c(CN3CCCC3)cn(Cc3c(Cl)cccc3Cl)c2c1)C(=O)NCc1ccccc1` [Compound 108], the results for the IC50 (in assay [1]; with gel-filtered platelets (Platelet)) were 2600 nM and 3700 nM, respectively.

With `NCCC[C@H](NC(=O)[C@H](Cc1ccc(F)c(F)c1)NC(=O)Nc1ccc2c(CN3CCCC3)cn(Cc3c(Cl)cccc3Cl)c2c1)C(=O)NCCc1ccncc1` [Compound 109], the figures for the IC50 (in assay [1]; in the assay with gel-filtered platelets (Platelet)) were 610 nM and 840 nM, respectively.

`CCN(Cc1ccncc1)C(=O)[C@H](CCCN)NC(=O)[C@H](Cc1ccc(F)c(F)c1)NC(=O)Nc1ccc2c(CN3CCCC3)cn(Cc3c(Cl)cccc3Cl)c2c1` [Compound 110]: the values for the IC50 (in assay [1]; in the assay on gel-filtered platelets (Platelet)) were 2900 nM and 3700 nM, respectively.

As for `CN(Cc1ccccc1)C(=O)[C@H](CCCN)NC(=O)[C@H](Cc1ccc(F)c(F)c1)NC(=O)Nc1ccc2c(CN3CCCC3)cn(Cc3c(Cl)cccc3Cl)c2c1` [Compound 111], the IC50 amounted to 1900 nM in assay [1] and 3200 nM in the assay with gel-filtered platelets (Platelet).

For the molecule `NCCC[C@H](NC(=O)[C@H](Cc1ccc(F)c(F)c1)NC(=O)Nc1ccc2c(CN3CCCC3)cn(Cc3c(Cl)cccc3Cl)c2c1)C(=O)NCc1ccc(Cl)c(Cl)c1` [Compound 112], the figures for the IC50 (in assay [1]; with gel-filtered platelets (Platelet)) were 2000 nM and 930 nM, respectively.

On to `NCCC[C@H](NC(=O)[C@H](Cc1ccc(F)c(F)c1)NC(=O)Nc1ccc2c(CN3CCCC3)cn(Cc3c(Cl)cccc3Cl)c2c1)C(=O)NCc1cccs1` [Compound 113], for which the IC50 in assay [1] came out at 850 nM; with gel-filtered platelets (Platelet) it was 720 nM.

In the case of `CN1CCN(C(=O)[C@H](CCCN)NC(=O)[C@H](Cc2ccc(F)c(F)c2)NC(=O)Nc2ccc3c(CN4CCCC4)cn(Cc4c(Cl)cccc4Cl)c3c2)CC1` [Compound 114], the IC50 in assay [1] was determined as 260 nM; in the assay with gel-filtered platelets (Platelet), 2400 nM.

For `NCCC[C@H](NC(=O)[C@H](Cc1ccc(F)c(F)c1)NC(=O)Nc1ccc2c(CN3CCCC3)cn(Cc3c(Cl)cccc3Cl)c2c1)C(=O)N1CCCCC1` [Compound 115], the results for the 50% inhibitory concentration (IC50) (in assay [1]; with gel-filtered platelets (Platelet)) were 370 nM and 2700 nM, respectively.

Take `NCCC[C@H](NC(=O)[C@H](Cc1ccc(F)c(F)c1)NC(=O)Nc1ccc2c(CN3CCCC3)cn(Cc3c(Cl)cccc3Cl)c2c1)C(=O)NCc1cccnc1` [Compound 116]: the IC50 in assay [1] worked out at 410 nM; in the assay on gel-filtered platelets (Platelet), 1100 nM.
